ChEMBL document CHEMBL4004798, “Phytochemical Investigations of Three Rhodocodon (Hyacinthaceae Sensu APG II) Species” (2017)

Columns and labels:
[1] = biological target: T1, Prostaglandin G/H synthase 2 (Homo sapiens) (UniProt P35354); test: Inhibition of COX2 in HCA-7 cells assessed as reduction in PGE2 release at 12 uM after 48 hrs by ELISA relative to control; assay type: cell-based
T1 sequence (whole entry): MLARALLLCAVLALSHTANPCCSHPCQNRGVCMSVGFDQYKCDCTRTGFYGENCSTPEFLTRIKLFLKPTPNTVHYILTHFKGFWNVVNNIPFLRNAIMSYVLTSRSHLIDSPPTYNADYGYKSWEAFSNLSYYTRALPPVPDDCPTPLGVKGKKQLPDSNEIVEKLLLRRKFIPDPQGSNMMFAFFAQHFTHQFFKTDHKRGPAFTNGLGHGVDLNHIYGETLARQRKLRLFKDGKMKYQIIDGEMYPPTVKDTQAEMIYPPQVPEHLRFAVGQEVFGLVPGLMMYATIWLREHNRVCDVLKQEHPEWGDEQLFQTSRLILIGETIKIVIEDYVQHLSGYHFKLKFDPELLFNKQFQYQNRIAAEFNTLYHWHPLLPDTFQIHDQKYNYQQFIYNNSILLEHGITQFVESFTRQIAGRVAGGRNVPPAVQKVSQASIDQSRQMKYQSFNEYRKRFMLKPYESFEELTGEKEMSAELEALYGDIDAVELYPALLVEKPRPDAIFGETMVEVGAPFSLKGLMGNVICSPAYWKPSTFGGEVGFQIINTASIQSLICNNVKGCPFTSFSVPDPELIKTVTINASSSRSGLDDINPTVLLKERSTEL

[2] = Inhibition of COX2 expression in HCA-7 cells at 12 uM after 48 hrs by Western blot method relative to control; assay type: functional; settings: Homo sapiens, HCA-7, 48 h
[3] = Inhibition of COX2 expression in HCA-7 cells at 1 mM after 48 hrs by Western blot method relative to control; assay type: functional; settings: Homo sapiens, HCA-7, 48 h

| inhibition [1] | SMILES | inhibition at 12 µM [2] | inhibition at 1000 µM [3] |
| --- | --- | --- | --- |
| 11% | COc1ccc(/C=C2\COc3cc(O)cc(O)c3C2=O)cc1OC(C)=O | 8% |  |
|  | CC(=O)Oc1ccccc1C(=O)O [ASPIRIN] |  | 12% |
| 20% | COc1ccc(/C=C2\COc3cc(O)c(O)c(O)c3C2=O)cc1O | 10% |  |
